According to patent US20080194585A1, “Fungicidal Pyrazine Derivatives” (priority 2005, published 2008):
Marks after values point to notes of the source that are not given here.

Columns and labels:
[1] = tested on: Septoria nodorum; assay: Test H: wheat glum blotch, preventive spray on wheat seedlings; conditions: 40 ppm (marked *); 100 = 100% disease control, 0 = no control
Description: (the causal agent of wheat glum blotch) and incubated in a saturated atmosphere at 20° C. for 48 h, and then moved to a growth chamber at 22° C. for 5 days, after which disease ratings were made.

[2] = tested on: Botrytis cinerea; assay: Test E: tomato botrytis, preventive spray on tomato seedlings; conditions: 40 ppm (marked *); 100 = 100% disease control, 0 = no control
[3] = tested on: Erysiphe graminis f. sp. tritici; assay: Test L: wheat powdery mildew, preventive spray on wheat seedlings; conditions: 100 = 100% disease control
[4] = tested on: Rhizoctonia oryzae; assay: Test G: turf brown patch, preventive spray on creeping bent grass seedlings; conditions: 100 = 100% disease control
Description: (the causal agent of turf brown patch) and incubated in a saturated atmosphere at 27° C. for 24 h, and then moved to a growth chamber at 27° C. for 5 days, after which disease ratings were made.

[5] = tested on: Plasmopara viticola; assay: Test D: grape downy mildew, spray after inoculation of grape seedlings; assay type: in vivo; conditions: 100 = 100% disease control
Excerpt: Upon removal, disease ratings were made. […] A dash (-) indicates no test results.

[6] = tested on: Phytophthora infestans; assay: whole plant or invertebrate; assay type: in vivo; conditions: 100 = 100% disease control
[7] = tested on: Colletotrichum orbiculare; assay: Test B: cucumber Colletotrichum anthracnose, preventive spray on cucumber seedlings; conditions: 40 ppm (marked *); 100 = 100% disease control, 0 = no control
[8] = tested on: Puccinia recondita f. sp. tritici; assay: Test K: wheat leaf rust, preventive spray on wheat seedlings; conditions: 40 ppm (marked *); 100 = 100% disease control, 0 = no control
[9] = tested on: Pythium aphanidermatum; assay: Test A: bluegrass pythium blight, preventive spray on bluegrass seedlings; conditions: 100 = 100% disease control
[10] = tested on: Septoria tritici; assay: Test J: wheat leaf blotch, preventive spray on wheat seedlings; assay type: in vivo; conditions: 100 = 100% disease control
Excerpt: A dash (-) indicates no test results.

[11] = tested on: fusarium graminearium; assay: Test I: wheat head scab, preventive spray on wheat seedlings; conditions: 100 = 100% disease control
Description: (the causal agent of wheat head scab) and incubated in a saturated atmosphere at 20° C. for 72 h, and then moved to a growth chamber at 22° C. for 5 days, after which disease ratings were made.

[12] = 40 ppm (marked *), 0 = no control
[13] = 200 ppm, 0 = no control relative to controls

## O=c1c(-n2cccn2)nc(Cl)c(-c2c(F)cc(F)cc2F)n1Cc1ccc(Br)cc1 [compound 377]
[1]
  Test H disease control rating: 0* %
[2]
  Test E disease control rating: 99* %
[3]; [12]
  Test L disease control rating: 94* %
[4]; [12]
  Test G disease control rating: 0* %
[5]; [12]
  Test D disease control rating: 0* %
[6]; [13]
  Test F disease control rating: 0%
[7]
  Test B disease control rating: 31* %
[8]
  Test K disease control rating: 98* %
[9]; [12]
  Test A disease control rating: 0* %
[10]; [12]
  Test J disease control rating: 100* %
[11]; [13]
  Test I disease control rating: 0%

## Cc1cccc(-n2c(-c3c(F)cccc3F)c(Cl)nc(-n3cccn3)c2=O)c1C [compound 378]
[1]
  Test H disease control rating: 98* %
[2]
  Test E disease control rating: 98* %
[3]; [12]
  Test L disease control rating: 91* %
[4]; [12]
  Test G disease control rating: 51* %
[5]; [12]
  Test D disease control rating: 0* %
[6]; [12]
  Test F disease control rating: 0* %
[7]
  Test B disease control rating: 0* %
[8]
  Test K disease control rating: 98* %
[9]; [12]
  Test A disease control rating: 0* %
[10]; [12]
  Test J disease control rating: 100* %
[11]; [12]
  Test I disease control rating: 0* %

## Cc1ccn(-c2nc(Cl)c(-c3c(F)cccc3F)n(-c3cccc(C)c3C)c2=O)n1 [compound 379]
[1]
  Test H disease control rating: 90* %
[2]
  Test E disease control rating: 98* %
[3]; [12]
  Test L disease control rating: 40* %
[4]; [12]
  Test G disease control rating: 0* %
[5]; [12]
  Test D disease control rating: 0* %
[6]; [12]
  Test F disease control rating: 0* %
[7]
  Test B disease control rating: 0* %
[8]
  Test K disease control rating: 95* %
[9]; [12]
  Test A disease control rating: 0* %
[10]; [12]
  Test J disease control rating: 100* %
[11]; [12]
  Test I disease control rating: 0* %

## O=c1c(-n2cccn2)nc(Cl)c(-c2c(F)cccc2F)n1-c1cccc(F)c1F [compound 380]
[1]
  Test H disease control rating: 99* %
[2]
  Test E disease control rating: 99* %
[3]; [12]
  Test L disease control rating: 99* %
[4]; [13]
  Test G disease control rating: 60%
[5]; [12]
  Test D disease control rating: 0* %
[6]; [12]
  Test F disease control rating: 0* %
[7]
  Test B disease control rating: 96* %
[8]
  Test K disease control rating: 100* %
[9]; [12]
  Test A disease control rating: 0* %
[10]; [12]
  Test J disease control rating: 99* %
[11]; [12]
  Test I disease control rating: 60* %

## Cc1ccn(-c2nc(Cl)c(-c3c(F)cccc3F)n(-c3cccc(F)c3F)c2=O)n1 [compound 381]
[1]
  Test H disease control rating: 99* %
[2]
  Test E disease control rating: 100* %
[3]; [12]
  Test L disease control rating: 76* %
[4]; [12]
  Test G disease control rating: 16* %
[5]; [12]
  Test D disease control rating: 0* %
[6]; [12]
  Test F disease control rating: 0* %
[7]
  Test B disease control rating: 78* %
[8]
  Test K disease control rating: 100* %
[9]; [12]
  Test A disease control rating: 0* %
[10]; [12]
  Test J disease control rating: 100* %
[11]; [12]
  Test I disease control rating: 0* %

## O=c1c(-n2cccn2)nc(Cl)c(-c2c(F)cccc2F)n1-c1ccc(F)cc1 [compound 382]
[1]
  Test H disease control rating: 99* %
[2]
  Test E disease control rating: 99* %
[3]; [12]
  Test L disease control rating: 50* %
[4]; [13]
  Test G disease control rating: 16%
[5]; [12]
  Test D disease control rating: 0* %
[6]; [12]
  Test F disease control rating: 0* %
[7]
  Test B disease control rating: 63* %
[8]
  Test K disease control rating: 100* %
[9]; [12]
  Test A disease control rating: 0* %
[10]; [12]
  Test J disease control rating: 100* %
[11]; [12]
  Test I disease control rating: 0* %

## Cc1ccn(-c2nc(Cl)c(-c3c(F)cccc3F)n(-c3ccc(F)cc3)c2=O)n1 [compound 383]
[1]
  Test H disease control rating: 100* %
[2]
  Test E disease control rating: 99* %
[3]; [12]
  Test L disease control rating: 99* %
[4]; [12]
  Test G disease control rating: 49* %
[5]; [12]
  Test D disease control rating: 0* %
[6]; [12]
  Test F disease control rating: 0* %
[7]
  Test B disease control rating: 63* %
[8]
  Test K disease control rating: 100* %
[9]; [12]
  Test A disease control rating: 0* %
[10]; [12]
  Test J disease control rating: 100* %
[11]; [12]
  Test I disease control rating: 0* %

## O=c1c(-n2cccn2)nc(Cl)c(-c2c(F)cccc2F)n1-c1cc(F)cc(F)c1 [compound 384]
[1]
  Test H disease control rating: 99* %
[2]
  Test E disease control rating: 99* %
[3]; [12]
  Test L disease control rating: 59* %
[4]; [12]
  Test G disease control rating: 47* %
[5]; [12]
  Test D disease control rating: 15* %
[6]; [12]
  Test F disease control rating: 0* %
[7]
  Test B disease control rating: 90* %
[8]
  Test K disease control rating: 100* %
[9]; [12]
  Test A disease control rating: 0* %
[10]; [12]
  Test J disease control rating: 98* %
[11]; [12]
  Test I disease control rating: 0* %

## Cc1ccn(-c2nc(Cl)c(-c3c(F)cccc3F)n(-c3cc(F)cc(F)c3)c2=O)n1 [compound 385]
[1]
  Test H disease control rating: 99* %
[2]
  Test E disease control rating: 99* %
[3]; [12]
  Test L disease control rating: 89* %
[4]; [12]
  Test G disease control rating: 78* %
[5]; [12]
  Test D disease control rating: 0* %
[6]; [12]
  Test F disease control rating: 0* %
[7]
  Test B disease control rating: 99* %
[8]
  Test K disease control rating: 100* %
[9]; [12]
  Test A disease control rating: 0* %
[10]; [12]
  Test J disease control rating: 100* %
[11]; [12]
  Test I disease control rating: 0* %

## O=c1c(-n2cccn2)nc(Cl)c(-c2c(F)cccc2F)n1-c1ccc(F)cc1F [compound 386]
[1]
  Test H disease control rating: 100* %
[2]
  Test E disease control rating: 99* %
[3]; [12]
  Test L disease control rating: 68* %
[4]; [12]
  Test G disease control rating: 99* %
[5]; [12]
  Test D disease control rating: 57* %
[6]; [12]
  Test F disease control rating: 0* %
[7]
  Test B disease control rating: 87* %
[8]
  Test K disease control rating: 100* %
[9]; [12]
  Test A disease control rating: 0* %
[10]; [12]
  Test J disease control rating: 96* %
[11]; [12]
  Test I disease control rating: 0* %

## Cc1ccn(-c2nc(Cl)c(-c3c(F)cccc3F)n(-c3ccc(F)cc3F)c2=O)n1 [compound 387]
[1]
  Test H disease control rating: 89* %
[2]
  Test E disease control rating: 99* %
[3]; [12]
  Test L disease control rating: 0* %
[4]; [12]
  Test G disease control rating: 60* %
[5]; [12]
  Test D disease control rating: 0* %
[6]; [12]
  Test F disease control rating: 0* %
[7]
  Test B disease control rating: 0* %
[8]
  Test K disease control rating: 100* %
[9]; [12]
  Test A disease control rating: 0* %
[10]; [12]
  Test J disease control rating: 99* %
[11]; [12]
  Test I disease control rating: 0* %

## CC(C)Cn1c(-c2c(Cl)cc(C(F)(F)F)cc2Cl)c(Cl)nc(-n2cccn2)c1=O [compound 391]
[1]
  Test H disease control rating: 0* %
[2]
  Test E disease control rating: 0* %
[3]; [12]
  Test L disease control rating: 0* %
[4]; [12]
  Test G disease control rating: 0* %
[5]; [12]
  Test D disease control rating: 0* %
[6]; [12]
  Test F disease control rating: 0* %
[7]
  Test B disease control rating: 0* %
[8]
  Test K disease control rating: 88* %
[9]; [12]
  Test A disease control rating: 0* %
[10]; [12]
  Test J disease control rating: 33* %
[11]; [12]
  Test I disease control rating: 0* %

## CCC(C)Cn1c(-c2c(F)cc(F)cc2F)c(Cl)nc(C(=O)NOC)c1=O (centres unmarked) [compound 417]
[1]
  Test H disease control rating: 60* %
[2]
  Test E disease control rating: 99* %
[3]; [13]
  Test L disease control rating: 76%
[4]; [12]
  Test G disease control rating: 0* %
[5]; [13]
  Test D disease control rating: 86%
[6]; [13]
  Test F disease control rating: 93%
[7]
  Test B disease control rating: 71* %
[8]
  Test K disease control rating: 100* %
[9]; [13]
  Test A disease control rating: 0%
[10]; [13]
  Test J disease control rating: 0%
[11]; [13]
  Test I disease control rating: 0%
